Results on 12 compounds are retold here after paper PMC5074076, “Novel minimal physiologically-based model for the prediction of passive tubular reabsorption and renal excretion clearance” (European Journal of Pharmaceutical Sciences, 2016).

In general, Papp A→B refers to how fast a substance crosses the layer from the apical side. Usually pKa stands for the negative logarithm of the acid dissociation constant. What is called logD is the decadic logarithm of the distribution of all forms, ionised or not, between an organic phase and buffer at a given pH.

Series [1] is described as follows: Papp-Freab′ calibration of Caco-2 Papp with reference drugs and CLR prediction. Set-up: species or system human. Conditions: reference drugs; calibrated Caco-2 Papp after Hill equation fitting. The text has this:
To account for this and to allow the Caco-2 data in the present study to be transferable to other assay formats/laboratories, a Papp–Freab′ calibration method was explored by splitting the available Papp and Freab′ data into ‘reference’ and internal ‘validation’ subsets. […] The calibration approach is proposed as a pragmatic method to account for inter-assay/inter-laboratory differences; herein it is applied to the current dataset only, and not external data as intended for future studies.
In order to evaluate the application of Papp–Freab′ calibration (Eq. (17)), 11 drugs were selected as reference ‘calibrator’ drugs (Papp,ref) covering a representative range of Freab′ and Papp values (Table 5). The remaining 34 drugs were treated as an internal ‘validation’ set.

Series [2] can be described thus: Observed clearance ratio and fraction reabsorbed (Freab, Freab′) calculated from CLR, fu,p and GFR. Conditions: for Apparent Freab / Apparent Freab’: calculated from observed CLR, fu,p and GFR; for Freab: observed/apparent, 1 - CLR/(GFR x fu,p), GFR 120 mL/min. Here is the method:
The clearance ratio was calculated from clinical data using Eqs. […] For the remaining drugs the fraction reabsorbed (Freab) was calculated using Eq.
GFR values for healthy subjects may vary as a result of biological as well as inter-individual variation and also the method of measurement. […] Individual GFR values for subjects in clinical trials databases were generally not available.
In the proposed model, the nephron is represented as five compartments, namely the glomerulus and four tubular regions, as depicted in Fig. 1. The tubular compartments in the model, listed in anatomical order starting from the glomerulus are: the proximal tubule (PT), the loop of Henle (LoH), the distal tubule (DT) and the collecting duct (CD). […] The relationship between Freab′ and Freab is shown in Eq. (11). The predicted overall Freab′ was calculated from the predicted Freab′ in each (i) tubular region (Freab,i′), as shown in Eq. (12).

The nature of series [3]: Ionisation classification at pH 6.5 from pKa. In kind it is physicochemical. Conditions: predominant species (> 50%) at pH 6.5 from measured or calculated pKa. The source says: (§1) The pKa values associated with ionisable centres identified within a given drug were used to calculate the fraction of drug ionised at pH 6.5. Drugs were then classified into groups as follows: drugs with > 50% unionised at pH 6.5 were classified as “Neutral”; drugs with > 50% ionised as mono −/di −/tri-protic acids or bases were classified as “Acid” or “Base”, respectively; “Zwitterions” were classified as drugs with > 50% ionised, with the major ionised species having no net charge; all other drugs were classified as amphoteric. […] LogD6.5 for neutral, amphoteric and zwitterion drugs were assumed to be equal to LogD7.4.

Series [4] is described as follows: Caco-2 apparent permeability (Papp), apical to basolateral, pH 6.5-7.4 gradient, efflux inhibitor cocktail. Conditions: human, Caco-2, pH 6.5. (Caco-2 monolayers are a common model of the intestinal barrier.)
Description: (§2) The assay was performed using the apical to basolateral pH gradient format of pH 6.5 to pH 7.4. […] The efflux transporter inhibitor cocktail was used to minimise the effect of efflux transporters expressed in Caco-2 cells (e.g. P-glycoprotein, BCRP and MRP2) on the estimate of apical to basolateral Papp of substrates for such transporters.
For series [5], the system named is Caco-2 cell monolayers. Described as above. Conditions: Caco-2, apical to basolateral, pH 6.5 to 7.4, efflux inhibitor cocktail, 2 h.
Description: as §2
The conditions of series [6]: cited from earlier work; for CLR: healthy adult subjects, overall weighted mean of literature values, absolute (not normalised), ref Supplementary Results Table S2.1; for Overall weighted mean CLR: healthy subjects, plasma and urine data from same subjects, normalised for subject weight and body surface area where necessary; for Overall weighted mean CLR / CLR Observed: ref Table S2.1; for CLR Observed: overall weighted mean of values obtained from a literature survey.

Series [7] in a line: pKa, potentiometric AstraZeneca in-house assay (or ACD / BioByte).
Description: as §1

Series [8] in a line: LogD7.4 octanol-buffer, shake-flask (or ACD / BioByte). Conditions: octanol/buffer, pH 7.4.
Description: as §1

Series [9] in a line: LogD6.5 estimated from LogD7.4 and pKa. Conditions: octanol/buffer, pH 6.5.
Description: as §1

Setting [10] is: pKa (acid), measured, potentiometric.
Setting [11] is: pKa (base), measured, potentiometric.

“And” between values parts separate entries of the source, which are not always exact repeats. Identical values can stand only once. Like-named read-outs stand apart in the source and are kept apart here.

Turning to `C[C@@H]1CN(c2c(F)c(N)c3c(=O)c(C(=O)O)cn(C4CC4)c3c2F)C[C@H](C)N1` [Sparfloxacin], the “Papp,ref,calibrated” value in series [1] is 34.35 × 10^− 6 cm/s. In series [2], the “Apparent Freab” value is 0.731, the “Apparent Freab’” value is 0.737 and the Freab is 0.73. In [3], the “Ionisation at pH 6.5” value was “Zwitterion”. In addition, the Papp A→B at 2 h in series [4] was 49.8 ×10⁻⁶ cm/s. Besides, the Papp in series [5] is reported as 49.83 × 10^− 6 cm/s. Further, in [6], the CLR was 21.7 mL/min, the “Overall weighted mean CLR” value is 21.7 mL/min and the “CLR Observed” value is 21.69 mL/min. Moreover, the pKa in [7] (setting [10]) amounted to 6.31. Moreover, the pKa in series [7] (setting [11]) turned out to be 8.94.
With `C[C@@H](c1ncncc1F)[C@](O)(Cn1cncn1)c1ccc(F)cc1F` [Voriconazole], the logD in series [8] came out at 1.7. Further, the “Papp,ref,calibrated” value in series [1] is listed as 134.68 × 10^− 6 cm/s. Moreover, in series [9], the logD is 1.7. Further, the “Ionisation at pH 6.5” value in [3] is listed as “Neutral”. In [4], the Papp A→B at 2 h stood at 96.5 ×10⁻⁶ cm/s. For the same compound, the Papp in series [5] is reported as 96.51 × 10^− 6 cm/s. In series [6], the CLR is 1.57 mL/min, the “Overall weighted mean CLR” value was 1.6 mL/min and the “CLR Observed” value is 1.57 mL/min.
The compound `Cc1cccc(C)c1NC(=O)C(C)N` (stereo not shown) [Tocainide] gave a logD in [8] of 0.03. Also, in [1], the “Papp,ref,calibrated” value was 4.68 × 10^− 6 cm/s. Moreover, in series [2], the “Apparent Freab” value is on record as 0.181, the “Apparent Freab’” value is given as 0.183 and the Freab is 0.18. Further, in [3], the “Ionisation at pH 6.5” value is given as “Base”. The Papp A→B at 2 h in series [4] worked out at 19 ×10⁻⁶ cm/s. For the same compound, the Papp in [5] was 19 × 10^− 6 cm/s. In [6], the CLR is recorded as 67.5 mL/min, the “Overall weighted mean CLR” value was 67.5 mL/min and the “CLR Observed” value was 67.50 mL/min.
On to `CCCN(CCC)S(=O)(=O)c1ccc(C(=O)O)cc1` [Probenecid], for which, in [2], the “Apparent Freab” value was 0.955, the “Apparent Freab’” value is listed as 0.963 and the Freab is 0.96. For the same compound, in series [2] (listed as probenecid), the Freab is 0.955. Moreover, the logD in series [9] was 0.76. Further, in series [3], the “Ionisation at pH 6.5” value is recorded as “Acid”. In series [4], the Papp A→B at 2 h was found to be 84.5 ×10⁻⁶ cm/s. In addition, in [6], the CLR is given as 0.50 mL/min, the “Overall weighted mean CLR” value was 0.5 mL/min and the “CLR Observed” value is 0.50 mL/min. In series [7] (setting [10]), this compound registered a pKa of 3.36.
In the case of `CN1CCN(c2cc3c(cc2F)c(=O)c(C(=O)O)cn3-c2ccc(F)cc2)CC1` [Difloxacin], in [2], the “Apparent Freab” value is given as 0.939, the “Apparent Freab’” value is given as 0.947 and the Freab is listed as 0.94. Besides, the “Ionisation at pH 6.5” value in series [3] is given as “Zwitterion”. In addition, the apical-to-basolateral permeability (Papp A→B) at 2 h in series [4] came out at 74.6 ×10⁻⁶ cm/s. Further, in series [6], the CLR is given as 4.54 mL/min, the “Overall weighted mean CLR” value is 4.5 mL/min and the “CLR Observed” value was 4.54 mL/min. The compound also gave a pKa in series [7] (setting [10]) of 5.81. For the same compound, the pKa in series [7] (setting [11]) was 7.39.
Turning to `Cc1cc(NC(=O)C2=C(O)c3ccccc3S(=O)(=O)N2C)no1` [Isoxicam], in series [2], the “Apparent Freab” value is reported as 0.995, the “Apparent Freab’” value is 1.003 and the Freab was 1.00. Also, the Freab in series [2] (listed as isoxicam) was no less than 0.99. The “Freab′” value in series [2] (observed, fraction of equilibrium reached between urine and plasma) was 1. Moreover, the log distribution coefficient (logD) in series [9] was 0.7. Also, in series [3], the “Ionisation at pH 6.5” value is given as “Acid”. Further, in series [4], the apparent permeability from apical to basolateral (Papp A→B) at 2 h turned out to be 142 ×10⁻⁶ cm/s. Further, in series [6], the CLR is 0.02 mL/min and the “CLR Observed” value is 0.02 mL/min. Besides, the CLR in series [6] (listed as isoxicam) is recorded as 0.022 mL/min. In [7] (setting [10]), this compound showed a pKa of 3.84.
Turning to `NC(=O)c1ncn([C@@H]2O[C@H](CO)[C@@H](O)[C@H]2O)n1` [Ribavirin], the “Papp,ref,calibrated” value in series [1] is on record as 0.03 × 10^− 6 cm/s. Also, in series [2], the “Apparent Freab” value is given as 0.084, the “Apparent Freab’” value was 0.085 and the Freab is 0.08. For the same compound, in series [3], the “Ionisation at pH 6.5” value is recorded as “Neutral”. Moreover, the Papp A→B at 2 h in series [4] was 1.55 ×10⁻⁶ cm/s. For the same compound, in series [6], the CLR was 109.9 mL/min and 110 mL/min; the “Overall weighted mean CLR” value is 109.9 mL/min; the “CLR Observed” value was 109.94 mL/min.
For `COCCc1ccc(OCC(O)CNC(C)C)cc1` (stereo not shown) [Metoprolol], in [2], the “Apparent Freab” value is recorded as -0.050 and the “Apparent Freab’” value is on record as -0.050. In addition, the “Ionisation at pH 6.5” value in series [3] was “Base”. Further, the Papp A→B at 2 h in [4] came to 17 ×10⁻⁶ cm/s. For the same compound, in series [6], the CLR is 110 mL/min, the “Overall weighted mean CLR” value is 109.6 mL/min and the “CLR Observed” value is 109.58 mL/min. This compound also returned a pKa in series [7] of 9.4.
With `CN(C)[C@@H]1C(O)=C(C(N)=O)C(=O)[C@@]2(O)C(O)=C3C(=O)c4c(O)cccc4[C@@](C)(O)[C@H]3[C@H](O)[C@@H]12` [Oxytetracycline], in [1], the “Papp,ref,calibrated” value is 0.01 × 10^− 6 cm/s. Further, in series [2], the “Apparent Freab” value is listed as 0.019, the “Apparent Freab’” value is given as 0.019 and the Freab is 0.02. Also, in series [3], the “Ionisation at pH 6.5” value is on record as “Zwitterion”. In series [4], the Papp A→B at 2 h was 0.85 ×10⁻⁶ cm/s. For the same compound, the Papp in series [5] is listed as 0.85 × 10^− 6 cm/s. In [6], the CLR is recorded as 90.8 mL/min, the “Overall weighted mean CLR” value is 90.8 mL/min and the “CLR Observed” value was 90.80 mL/min.
Take `N=C(N)c1ccc(CNC(=O)[C@@H]2CCN2C(=O)[C@H](NCC(=O)O)C2CCCCC2)cc1` [Melagatran]: in series [2], the “Apparent Freab” value is on record as -0.021 and the “Apparent Freab’” value was -0.021. Further, the “Ionisation at pH 6.5” value in series [3] was “Amphoteric”. Moreover, the Papp A→B at 2 h in series [4] worked out at 0.145 ×10⁻⁶ cm/s. In [6], the CLR is on record as 114 mL/min, the “Overall weighted mean CLR” value is 113.7 mL/min and the “CLR Observed” value is 113.74 mL/min. In series [7] (setting [10]), this compound gave a pKa of 2.12.
`CC(C)NCC(O)COc1ccc(CCOCC2CC2)cc1` (stereo not shown) [Betaxolol] had a logD in series [8] of 0.63. Moreover, in series [2], the “Apparent Freab” value is reported as 0.081, the “Apparent Freab’” value is given as 0.081 and the Freab is on record as 0.08. Moreover, the “Ionisation at pH 6.5” value in [3] is “Base”. Moreover, in series [4], the Papp A→B at 2 h worked out at 20 ×10⁻⁶ cm/s. Also, in series [6], the CLR was 49.6 mL/min, the “Overall weighted mean CLR” value is 49.6 mL/min and the “CLR Observed” value is 49.64 mL/min. The pKa in [7] (setting [11]) is 9.53.
`CCCCC1=NC2(CCCC2)C(=O)N1Cc1ccc(-c2ccccc2-c2nnn[nH]2)cc1` [Irbesartan]: the log distribution coefficient (logD) in [8] was found to be 1.29. In [2], the “Apparent Freab” value is given as 0.623, the “Apparent Freab’” value is 0.628 and the Freab is reported as 0.62. Also, the log distribution coefficient (logD) in series [9] is 2.19. Moreover, the “Ionisation at pH 6.5” value in [3] is on record as “Acid”. In addition, in [4], the Papp A→B at 2 h turned out to be 44 ×10⁻⁶ cm/s. In addition, in series [6], the CLR is on record as 2.37 mL/min, the “Overall weighted mean CLR” value is 2.4 mL/min and the “CLR Observed” value was 2.37 mL/min. For the same compound, in series [7] (setting [10]), the pKa was 3.91.
